Assay results as given in patent US9765026B2, “Forms of apremilast and the process of making the same” (ScinoPharm Taiwan, Ltd., priority 2015, dated 2017).

Assays:
[1] = Dynamic Vapor Sorption (DVS) analysis of moisture uptake and release; assay type: physicochemical; details: for hygroscopicity (conclusion from DVS): cycling between 0% and 90% RH
Method: Dynamic Vapor Sorption (DVS)
The sample was placed into the DVS sample pan and dried under a stream of dry nitrogen at 25° C. (0% RH). The moisture was gradually introduced into the system with a 10% RH increment up to 90% RH and the humidity was then decreased in a similar trend for desorption phase. The sorption and desorption data were collected with equilibration set to dm/dt 0.004%/min for 5 min/step. The minimum and maximum time for each step were set to 10 and 360 min. Two sorption/desorption cycles were performed.

[2] = Stability at 40° C./75% RH; assay type: physicochemical; details: 40° C./75% RH for 4 weeks
Method: In comparison with the form F disclosed in U.S. Pat. No. 8,093,293, Form 3 and Form 4 in the present disclosure needs less process time to be prepared and is stable even at 40° C./75% RH for 4 weeks.

| hygroscopicity (conclusion from DVS) [1] | water content ([1]; RH 90% (FIG. 5B)) [%] | stability on storage [2] | weight gained ([1]; at 10% RH (FIG. 12)) | change in sample weight ([1]; humidity increased from 10% to 90% RH (FIG. 12)) | Structure (SMILES) | maximum moisture uptake ([1]; cycling between 0% and 90% RH (FIG. 15)) |
| --- | --- | --- | --- | --- | --- | --- |
| hygroscopic | – | – | – | – | CCOc1cc([C@@H](CS(C)(=O)=O)N2C(=O)c3cccc(NC(C)=O)c3C2=O)ccc1OC [amorphous apremilast, apremilast] | about 2.5 % of the total mass of the sample |
| hygroscopic | 4.5 | – | – | – | CCOc1cc([C@@H](CS(C)(=O)=O)N2C(=O)c3cccc(NC(C)=O)c3C2=O)ccc1OC [Form II, apremilast] | – |
| – | – | stable | – | – | CCOc1cc([C@@H](CS(C)(=O)=O)N2C(=O)c3cccc(NC(C)=O)c3C2=O)ccc1OC [Form 3, apremilast] | – |
| non-hygroscopic | – | stable | about 3.3% | no significant change | CCOc1cc([C@@H](CS(C)(=O)=O)N2C(=O)c3cccc(NC(C)=O)c3C2=O)ccc1OC [Form 4, apremilast] | – |
